From PMC5154799 (International journal of antimicrobial agents, 2016)

Target: thioredoxin reductase (TrxR, TVAG_474980) (Trichomonas vaginalis, UniProt A0A8U0WQ27)
Assay: DTNB reduction assay with NADPH, recombinant TrxR and Trx, absorbance at […] nm
Assay type: biochemical

CC(=O)OC[C@H]1O[C@@H]([S-])[C@H](OC(C)=O)[C@@H](OC(C)=O)[C@@H]1OC(C)=O.CCP(CC)CC.[Au+] [AF, auranofin]
IC50: 85 nM
